Measured values reported in patent US10092622B2 (M[…] University Research and Technology Corporation, priority 2009, dated 2018).
“Also recorded” adds a separate entry of the source. Read-outs that look alike come from different tables or passages of the source. Numbered stars: 1 amine (or outer) side, 2 acyl side, 3 side chain; on linkers, the order of the positions; unused ones are H or OH. Bridge positions count the residues as written; N and C are the ends. Square brackets hold non-standard residues; d marks the D form. Peptide text beside a SMILES is read from it. * marks the point of attachment. hTyr(3S-OH,4S-OH,3'-OSO3H) = N[C@H](C(=O)O)[C@H](O)[C@@H](O)c1ccc(O)c(OS(=O)(=O)O)c1; Orn(4R-OH,5R-OH) = O=C([C@H](C[C@@H](O)[C@@H](O)N[*:3])N[*:1])[*:2]; Pro(3S-OH,4S-Me) = C[C@H]1CN[C@H](C(=O)O)[C@H]1O; X1 = CCCCCOc1ccc(-c2cc(-c3ccc(C(=O)*)cc3)no2)cc1; Gln(3R-OH) = NC(=O)C[C@@H](O)[C@H](N)C(=O)O; Hyp = O=C(O)[C@@H]1C[C@@H](O)CN1

Columns and labels:
A. fumigatus = details: cited from earlier work
Microsporum gypseum = assay: Antifungal susceptibility testing, agar micro-dilution; type: cell-based; details: 48 hours
Text: (§1) Microbial organisms. Fungal strains were obtained from collections at Mississippi State University's Veterinary Medical Research and Diagnostic Laboratory System and Entomology and Plant Pathology Department or were purchased from the American Type Culture Collection (Manassas, Va.). Fungal isolates used in this study were Alternaria alternata, Aspergillus fumigatus, Aspergillus niger; Fusarium oxysporum f. sp. lycopersici ATCC9848, Geotrichum candidum F-260, Macrophomina phaseolina 61, Microsporum gypseum, Penicillium sp., Rhizoctonia solani MSCOT-I, and Trichophyton mentagrophytes. In addition, two Pythium species were tested: Pythium spinosum 472-04 and Pythium ultimum 671-04.
(§2) Antifungal susceptibility testing. Minimum inhibitory concentrations were determined by agar micro-dilution testing. […] One (1) mL of Sabouraud dextrose agar Difco™ (BD Diagnostics, Franklin Lakes, N.J.) was added to each well. Once the agar solidified, the plates were stored inverted at 4° C. until used. Fungal cultures were grown on 100×15 mm Sabouraud dextrose agar plates (Thermo Fisher Scientific Remel Products, Lenexa, Kans.) at 22° C. for 7 days. A circular punch, containing a 1 cm in diameter plug of the fungi from the agar plate, was made from an area of the plate having a confluent growth of the fungi. The plug was place in 3 mL of PBS and ground with approximately 30 strokes of a Ten-brock homogenizer. Five (5) μL of the supernatant was placed in the center of each well and allowed to dry before incubating the microtiter plates at 22° C. Minimum inhibitory concentrations were measured at 48 hours for each species, except for Trichophyton mentagrophytes, which was measured at 72 hours. MICS were determined as the lowest concentration that inhibited visible fungal growth.

Pythium spinosum 472-04 = assay: as above; type: cell-based; details: P. spinosum; 48 hours
Text: as §1, §2

Aspergillus fumigatus = assay: as above; type: cell-based; details: A. fumigatus; 48 hours
Text: as §1, §2

[1] = tested on: Macrophomina phaseolina 61; assay: as above; type: cell-based; details: 48 hours
Text: as §1, §2

Pythium ultimum 671-04 = assay: as above; type: cell-based; details: P. ultimum; 48 hours
Text: as §1, §2

Aspergillus niger = assay: as above; type: cell-based; details: A. niger; 48 hours
Text: as §1, §2

Alternaria alternata = assay: as above; type: cell-based; details: 48 hours
Text: as §1, §2

Penicillium sp. = assay: as above; type: cell-based; details: 48 hours
Text: as §1, §2

[2] = tested on: Geotrichum candidum F-260; assay: as above; type: cell-based; details: G. candidum; 48 hours
Text: as §1, §2

[3] = tested on: Fusarium oxysporum f. sp. lycopersici ATCC9848; assay: as above; type: cell-based; details: 48 hours
Text: as §1, §2

[4] = tested on: Trichophyton mentagrophytes; assay: as above; type: cell-based; details: 72 hours
Text: as §1, §2

[5] = tested on: Rhizoctonia solani MSCOT-I; assay: as above; type: cell-based; details: R. solani
Text: as §1, §2

Rhizoctonia solani = assay: Light microscopy of hyphae grown at sub-inhibitory concentration; type: cell-based; details: R. solani; subinhibitory concentration 0.5 μg/mL; versus control
Method: (§3) Microscopy. […] For each of the fungi, the hyphae or arthrospores with an observed MIC50 at 48 hours growing next to the MIC well were used for preparation of light microscopy and transmission electron microscopy (TEM) slides. For light microscopy, lactophenol cotton blue solution (Sigma) was used as a positive stain and mounting medium for the slide. For TEM, the G. candidum samples were fixed at 4° C. with 2.5% glutaraldehyde in 0.1 M phosphate buffer (pH 7.2). After being rinsed with the buffer, specimens were post-fixed with 2% osmium tetroxide in the phosphate buffer. The specimens washed with the phosphate butler were dehydrated in graded ethanol serials (50-100%), and then embedded in Spurr's resin. Thin sections generated with a Reichert-Jung Ultracut E Ultramicrotome (60-90 nm) were double stained with uranyl acetate and lead citrate as described previously. The grids were observed under a transmission electron microscope Jeol JEM-100CX11 (Joel Ltd., Tokyo, Japan). Images were taken at magnifications between 5,000 and 8,000.

Geotrichum candidum [6] = assay: Light microscopy of arthrospores; type: cell-based; details: G. candidum; 4 μg/mL for 48 hours; versus untreated
Method: as §3

Geotrichum candidum [7] = assay: Transmission electron microscopy of arthrospores; type: cell-based; details: G. candidum; subinhibitory 4 μg/mL for 48 hours; TEM; versus untreated
Method: as §3

## CCCCCOc1ccc(-c2cc(-c3ccc(C(=O)N[C@H]4C[C@@H](O)[C@@H](O)NC(=O)[C@@H]5[C@@H](O)[C@@H](C)CN5C(=O)[C@H]([C@H](O)CC(N)=O)NC(=O)[C@H]([C@H](O)[C@@H](O)c5ccc(O)c(OS(=O)(=O)O)c5)NC(=O)[C@@H]5C[C@@H](O)CN5C(=O)[C@H]([C@@H](C)O)NC4=O)cc3)no2)cc1 [micafungin] (X1-[Orn(4R-OH,5R-OH)]T[Hyp][hTyr(3S-OH,4S-OH,3'-OSO3H)][Gln(3R-OH)][Pro(3S-OH,4S-Me)]; lactam 1-C)
A. fumigatus; inhibitory concentrations
  hyphal morphology: hyphal burst
A. fumigatus; sub-inhibitory concentrations
  hyphal morphology: undulated membranes and deformed hyphae tips

## occidiofungin
Microsporum gypseum
  MIC: 4 mg/L
Pythium spinosum 472-04
  MIC: 1 mg/L
Aspergillus fumigatus
  MIC: 8 mg/L
[1]
  MIC: 2 mg/L
Pythium ultimum 671-04
  MIC: 2 mg/L
Aspergillus niger
  MIC: 4 mg/L
Alternaria alternata
  MIC: 8 mg/L
Penicillium sp.
  MIC: 32 mg/L
[2]
  MIC: 8 mg/L
  concentration with remarkable growth inhibition (MIC50): 4 mg/L
[3]
  MIC: > 32 mg/L
  concentration with significant growth inhibition: 16 µg/mL
[4]
  MIC: 4 mg/L
[5]; 0.5 μg/mL occidiofungin
  reduction in growth: > 50%
[5]; 48 hours
  concentration with significant growth inhibition (MIC50, >50% growth inhibition): 0.5 mg/L
Rhizoctonia solani
  hyphal morphology: significant hyphal morphological changes
Geotrichum candidum [6]
  arthrospore/cell morphology: significant swelling of the cells; also recorded: amorphous shapes due to cellular swelling
Geotrichum candidum [7]
  cell wall thickness: drastically reduced; also recorded: dramatic decrease in cell wall thickness
